Inhibition data for 2 molecules are collected here from ChEMBL document CHEMBL5260845, “Flavone-based arylamides as potential anticancers: Design, synthesis and in vitro cell-based/cell-free evaluations” (2020).

Active and inactive are the calls of the source. The calls are words filed in the database; no cut-off is given here.

For assay [1], the target named is Fibroblast growth factor receptor 2 (Homo sapiens) (UniProt P21802). In words: Inhibition of FGFR2 (unknown origin) at 10 uM by biochemical hotspot kinase assay.
For assay [2], the target named is Serine/threonine-protein kinase Chk1 (Homo sapiens) (UniProt O14757). The assay is described as follows: Inhibition of CHK1 (unknown origin) at 10 uM by biochemical hotspot kinase assay.
Assay [3] deals with Serine/threonine-protein kinase B-raf (Homo sapiens) (UniProt P15056). In words: Inhibition of B-RAF (unknown origin) at 10 uM by biochemical hotspot kinase assay relative to control.
The target of assay [4] is Ribosomal protein S6 kinase alpha-1 (Homo sapiens) (UniProt Q15418). In words: Inhibition of RSK1 (unknown origin) at 10 uM by biochemical hotspot kinase assay.
For assay [5], the target named is Vascular endothelial growth factor receptor 1 (Homo sapiens) (UniProt P17948). In words: Inhibition of VEGFR1 (unknown origin) at 10 uM by biochemical hotspot kinase assay relative to control.
Assay [6] addresses Serine/threonine-protein kinase 17A (Homo sapiens) (UniProt Q9UEE5). In words: Inhibition of DRAK1 (unknown origin) at 10 uM by biochemical hotspot kinase assay relative to control.
Assay [7] addresses Serine/threonine-protein kinase Chk2 (Homo sapiens) (UniProt O96017). The assay is described as follows: Inhibition of CHK2 (unknown origin) at 10 uM by biochemical hotspot kinase assay relative to control.
The target of assay [8] is CDK1/Cyclin E (Homo sapiens) (UniProt P06493+P24864). In words: Inhibition of CDK1/cyclin E (unknown origin) at 10 uM by biochemical hotspot kinase assay. The class given is protein-complex assay.
In assay [9] the target is Wee1-like protein kinase (Homo sapiens) (UniProt P30291). The assay is described as follows: Inhibition of WEE1 (unknown origin) at 10 uM by biochemical hotspot kinase assay.
Assay [10] concerns the target Glycogen synthase kinase-3 beta (Homo sapiens) (UniProt P49841). The assay is described as follows: Inhibition of GSK3beta (unknown origin) at 10 uM by biochemical hotspot kinase assay relative to control.
The target in assay [11] is Angiopoietin-1 receptor (Homo sapiens) (UniProt Q02763). In words: Inhibition of TIE2 (unknown origin) at 10 uM by biochemical hotspot kinase assay relative to control.
Assay [12] addresses Mitogen-activated protein kinase 7 (Homo sapiens) (UniProt Q13164). The assay is described as follows: Inhibition of ERK5 (unknown origin) at 10 uM by biochemical hotspot kinase assay.
Assay [13] has as its target Cyclin-dependent kinase 1/cyclin B (Homo sapiens) (UniProt P06493+P14635+Q8WWL7+O95067). In words: Inhibition of CDK1/cyclin B (unknown origin) at 10 uM by biochemical hotspot kinase assay. The class given is protein-complex assay.
Assay [14] concerns the target Hepatocyte growth factor receptor (Homo sapiens) (UniProt P08581). The assay is described as follows: Inhibition of c-MET (unknown origin) at 10 uM by biochemical hotspot kinase assay relative to control.
The target in assay [15] is Tyrosine-protein kinase ABL1 (Homo sapiens) (UniProt P00519). In words: Inhibition of ABL1 (unknown origin) at 10 uM by biochemical hotspot kinase assay.
For assay [16], the target named is Mitogen-activated protein kinase kinase kinase kinase 1 (Homo sapiens) (UniProt Q92918). In words: Inhibition of HPK1 (unknown origin) at 10 uM by biochemical hotspot kinase assay.
Assay [17] addresses Mitogen-activated protein kinase kinase kinase 7 (Homo sapiens) (UniProt O43318). The assay is described as follows: Inhibition of TAK1 (unknown origin) at 10 uM by biochemical hotspot kinase assay relative to control.
For another assay, the system named is MCF7. In words: Antiproliferative activity against estrogen receptor positive human MCF7 cells assessed as inhibition of cell growth at 10 uM by SRB assay. The class given is functional, cell-based. A general note: The SRB assay estimates cell density from bound dye.
A further assay has as its system T47D. In words: Antiproliferative activity against estrogen receptor positive human T47D cells assessed as inhibition of cell growth at 10 uM by SRB assay. The class given is functional, cell-based.
Another assay concerns M14. The assay is described as follows: Antiproliferative activity against human M14 cells assessed as cell growth inhibition at 10 uM by SRB assay relative to control. The class given is functional.

Mitogen-activated protein kinase 7 (Homo sapiens), sequence (Q13164 2-816 limits assumed): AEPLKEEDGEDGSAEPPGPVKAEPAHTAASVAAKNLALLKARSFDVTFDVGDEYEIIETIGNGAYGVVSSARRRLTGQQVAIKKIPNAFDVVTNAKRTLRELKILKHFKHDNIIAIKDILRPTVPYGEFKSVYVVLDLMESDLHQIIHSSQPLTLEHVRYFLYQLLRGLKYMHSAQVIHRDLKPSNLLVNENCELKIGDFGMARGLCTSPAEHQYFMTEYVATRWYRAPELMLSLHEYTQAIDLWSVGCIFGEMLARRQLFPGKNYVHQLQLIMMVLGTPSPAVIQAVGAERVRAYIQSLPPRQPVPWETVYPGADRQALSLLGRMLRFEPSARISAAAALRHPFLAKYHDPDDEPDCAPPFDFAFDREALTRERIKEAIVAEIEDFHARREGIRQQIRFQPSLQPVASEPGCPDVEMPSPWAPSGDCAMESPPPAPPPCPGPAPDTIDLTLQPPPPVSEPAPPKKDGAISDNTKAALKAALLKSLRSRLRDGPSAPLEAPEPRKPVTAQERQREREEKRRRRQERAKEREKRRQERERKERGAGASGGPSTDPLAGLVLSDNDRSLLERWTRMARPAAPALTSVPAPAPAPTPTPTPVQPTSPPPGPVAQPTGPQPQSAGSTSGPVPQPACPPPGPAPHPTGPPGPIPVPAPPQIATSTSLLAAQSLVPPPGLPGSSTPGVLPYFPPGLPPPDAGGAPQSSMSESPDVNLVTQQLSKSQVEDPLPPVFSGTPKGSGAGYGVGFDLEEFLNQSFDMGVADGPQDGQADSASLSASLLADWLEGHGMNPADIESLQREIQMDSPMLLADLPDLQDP
Serine/threonine-protein kinase 17A (Homo sapiens), sequence (Q9UEE5 whole entry): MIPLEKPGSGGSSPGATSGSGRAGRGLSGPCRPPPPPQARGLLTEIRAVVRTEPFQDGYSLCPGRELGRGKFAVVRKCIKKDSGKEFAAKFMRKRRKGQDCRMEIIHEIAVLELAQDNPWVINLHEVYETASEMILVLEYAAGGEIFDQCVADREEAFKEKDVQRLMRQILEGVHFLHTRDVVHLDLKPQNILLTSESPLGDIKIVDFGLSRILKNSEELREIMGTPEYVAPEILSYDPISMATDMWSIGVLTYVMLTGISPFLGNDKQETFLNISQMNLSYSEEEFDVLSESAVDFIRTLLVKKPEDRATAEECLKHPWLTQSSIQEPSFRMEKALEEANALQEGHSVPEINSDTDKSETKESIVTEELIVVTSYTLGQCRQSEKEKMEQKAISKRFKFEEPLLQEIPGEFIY
Serine/threonine-protein kinase Chk1 (Homo sapiens), sequence (O14757 whole entry): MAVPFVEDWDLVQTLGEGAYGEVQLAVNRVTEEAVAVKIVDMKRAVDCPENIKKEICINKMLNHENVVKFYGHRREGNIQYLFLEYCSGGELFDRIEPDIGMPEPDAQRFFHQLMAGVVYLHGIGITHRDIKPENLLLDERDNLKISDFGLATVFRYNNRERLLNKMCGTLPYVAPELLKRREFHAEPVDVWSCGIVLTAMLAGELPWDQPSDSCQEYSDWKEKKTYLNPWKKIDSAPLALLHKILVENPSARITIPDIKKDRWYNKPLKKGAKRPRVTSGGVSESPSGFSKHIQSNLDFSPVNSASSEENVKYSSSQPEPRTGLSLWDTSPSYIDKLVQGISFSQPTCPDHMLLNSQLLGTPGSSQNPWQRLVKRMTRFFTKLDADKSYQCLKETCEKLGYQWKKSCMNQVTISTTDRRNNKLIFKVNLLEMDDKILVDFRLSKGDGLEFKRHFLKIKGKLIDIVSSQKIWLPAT
Serine/threonine-protein kinase B-raf (Homo sapiens), sequence (P15056 whole entry): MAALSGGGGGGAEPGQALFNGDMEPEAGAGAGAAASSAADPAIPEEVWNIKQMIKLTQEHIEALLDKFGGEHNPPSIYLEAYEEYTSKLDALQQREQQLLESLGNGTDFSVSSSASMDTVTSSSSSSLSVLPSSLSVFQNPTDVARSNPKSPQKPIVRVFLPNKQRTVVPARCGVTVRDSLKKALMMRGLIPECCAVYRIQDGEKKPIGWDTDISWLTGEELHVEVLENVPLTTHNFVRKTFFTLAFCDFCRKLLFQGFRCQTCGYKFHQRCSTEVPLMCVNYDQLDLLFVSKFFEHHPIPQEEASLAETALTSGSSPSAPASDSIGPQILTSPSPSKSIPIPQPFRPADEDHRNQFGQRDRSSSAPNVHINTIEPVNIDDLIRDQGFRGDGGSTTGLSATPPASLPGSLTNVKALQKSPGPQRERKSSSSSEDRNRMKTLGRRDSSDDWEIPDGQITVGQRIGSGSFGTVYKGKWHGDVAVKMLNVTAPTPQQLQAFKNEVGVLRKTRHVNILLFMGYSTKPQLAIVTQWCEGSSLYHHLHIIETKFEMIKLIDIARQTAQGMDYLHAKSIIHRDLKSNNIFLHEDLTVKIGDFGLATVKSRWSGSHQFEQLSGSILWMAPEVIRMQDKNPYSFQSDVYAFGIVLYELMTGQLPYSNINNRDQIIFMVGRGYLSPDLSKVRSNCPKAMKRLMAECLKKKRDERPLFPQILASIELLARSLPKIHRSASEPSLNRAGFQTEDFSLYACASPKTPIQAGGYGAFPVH
Mitogen-activated protein kinase kinase kinase kinase 1 (Homo sapiens), sequence (Q92918 whole entry, looked up): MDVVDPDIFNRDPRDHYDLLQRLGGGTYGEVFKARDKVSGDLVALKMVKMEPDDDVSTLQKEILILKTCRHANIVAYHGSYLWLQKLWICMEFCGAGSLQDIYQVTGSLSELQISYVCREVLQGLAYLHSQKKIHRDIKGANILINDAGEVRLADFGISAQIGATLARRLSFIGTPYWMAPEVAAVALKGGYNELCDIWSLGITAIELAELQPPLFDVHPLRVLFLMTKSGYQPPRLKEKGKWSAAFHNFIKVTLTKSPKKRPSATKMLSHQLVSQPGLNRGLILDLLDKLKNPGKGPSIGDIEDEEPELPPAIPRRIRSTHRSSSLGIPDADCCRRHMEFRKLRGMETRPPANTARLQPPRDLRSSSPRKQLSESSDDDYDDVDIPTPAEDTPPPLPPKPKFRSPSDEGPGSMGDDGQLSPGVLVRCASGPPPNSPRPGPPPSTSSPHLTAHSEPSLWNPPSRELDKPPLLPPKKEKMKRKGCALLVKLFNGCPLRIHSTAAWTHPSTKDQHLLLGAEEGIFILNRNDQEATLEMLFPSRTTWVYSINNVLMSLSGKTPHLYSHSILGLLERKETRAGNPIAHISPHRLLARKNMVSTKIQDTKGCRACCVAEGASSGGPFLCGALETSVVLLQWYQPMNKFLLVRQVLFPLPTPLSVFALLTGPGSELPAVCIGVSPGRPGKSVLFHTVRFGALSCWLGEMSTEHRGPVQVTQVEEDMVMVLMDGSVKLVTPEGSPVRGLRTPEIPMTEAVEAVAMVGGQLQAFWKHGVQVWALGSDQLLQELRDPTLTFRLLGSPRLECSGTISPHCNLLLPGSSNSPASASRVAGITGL
Angiopoietin-1 receptor (Homo sapiens), sequence (Q02763 whole entry): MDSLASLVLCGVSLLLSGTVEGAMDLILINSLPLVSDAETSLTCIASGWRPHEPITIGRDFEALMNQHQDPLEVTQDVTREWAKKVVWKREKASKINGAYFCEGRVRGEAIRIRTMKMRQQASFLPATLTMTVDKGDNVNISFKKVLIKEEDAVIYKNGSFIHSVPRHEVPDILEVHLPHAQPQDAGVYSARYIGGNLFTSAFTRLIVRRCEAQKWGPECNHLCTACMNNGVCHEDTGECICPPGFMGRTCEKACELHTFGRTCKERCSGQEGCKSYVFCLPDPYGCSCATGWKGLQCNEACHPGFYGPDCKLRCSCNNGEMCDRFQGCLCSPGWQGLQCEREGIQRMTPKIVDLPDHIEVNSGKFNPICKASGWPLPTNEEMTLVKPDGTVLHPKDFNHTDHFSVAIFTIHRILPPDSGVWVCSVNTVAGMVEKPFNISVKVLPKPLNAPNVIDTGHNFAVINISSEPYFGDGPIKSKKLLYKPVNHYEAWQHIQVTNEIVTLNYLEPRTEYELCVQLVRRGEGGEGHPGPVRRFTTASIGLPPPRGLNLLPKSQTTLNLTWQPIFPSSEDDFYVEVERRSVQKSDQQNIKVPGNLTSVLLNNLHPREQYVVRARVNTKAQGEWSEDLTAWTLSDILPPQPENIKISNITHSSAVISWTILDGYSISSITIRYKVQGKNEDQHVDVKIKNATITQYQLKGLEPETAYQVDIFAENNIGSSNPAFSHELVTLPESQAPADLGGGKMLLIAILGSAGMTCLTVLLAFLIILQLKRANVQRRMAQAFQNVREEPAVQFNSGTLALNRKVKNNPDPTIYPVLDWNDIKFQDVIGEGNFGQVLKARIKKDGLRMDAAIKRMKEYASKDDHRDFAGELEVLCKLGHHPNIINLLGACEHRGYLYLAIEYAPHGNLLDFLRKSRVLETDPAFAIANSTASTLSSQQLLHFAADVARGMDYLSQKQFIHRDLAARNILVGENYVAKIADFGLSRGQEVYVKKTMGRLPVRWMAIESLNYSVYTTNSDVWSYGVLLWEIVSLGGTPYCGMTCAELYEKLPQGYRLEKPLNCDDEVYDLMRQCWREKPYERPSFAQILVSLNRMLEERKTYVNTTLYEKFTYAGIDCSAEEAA
Glycogen synthase kinase-3 beta (Homo sapiens), sequence (P49841 whole entry, looked up): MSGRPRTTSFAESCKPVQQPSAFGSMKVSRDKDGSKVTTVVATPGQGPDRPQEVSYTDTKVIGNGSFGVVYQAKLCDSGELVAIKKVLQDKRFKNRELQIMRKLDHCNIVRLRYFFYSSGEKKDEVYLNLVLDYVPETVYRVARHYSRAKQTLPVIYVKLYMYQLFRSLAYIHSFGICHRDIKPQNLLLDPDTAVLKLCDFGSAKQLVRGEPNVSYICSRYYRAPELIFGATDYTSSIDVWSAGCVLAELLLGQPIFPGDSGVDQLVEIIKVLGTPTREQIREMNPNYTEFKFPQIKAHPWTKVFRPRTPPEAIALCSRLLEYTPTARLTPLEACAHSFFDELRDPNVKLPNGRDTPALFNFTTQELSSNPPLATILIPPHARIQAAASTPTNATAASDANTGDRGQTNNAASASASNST

In general, inhibition refers to the relative decrease from the control value, in per cent. As for `COc1cc2oc(-c3cccc(C(=O)Nc4ccc(C)cc4)c3)cc(=O)c2c(OC)c1OC`, the inhibition entry in assay [1], in assay [2], in assay [4], in [8], in assay [9] and in assay [12] was “inactive” in each case. Also, the inhibition result in assay [13], in assay [15] and in [16] was “inactive” in each case. Moreover, the inhibition worked out at 34.3% in [3]; 14.9% in assay [5]; 3.24% in [6]; 6.31% in [7]; 1.03% in assay [10]; 0.46% in assay [11]. Also, the inhibition was determined as 27.1% in assay [14] and 7.06% in assay [17].

On to `COc1cc2oc(-c3cccc(C(=O)Nc4ccc(Cl)cc4)c3)cc(=O)c2c(OC)c1OC`, for which the inhibition entry in the assay with MCF7 and in the assay on T47D was “Active” each time. The inhibition at 10 µM with M14 was 107%.
